Measurements reported in PMC7356787, “Structure-Activity Relationships for the Anaesthetic and Analgaesic Properties of Aromatic Ring-Substituted Ketamine Esters” (Molecules, 2020).

How the values were obtained:
rats [1] = assay: Anaesthetic assessment by continuous intravenous infusion in rats (loss and return of righting reflex); type: in vivo; conditions: iv; rat, i.v. infusion starting at 20 mg/kg/min; measure of sedative potency; mean (SEM); read-out: Sedation LORR: minimal dose for loss of righting reflex (SEM)
Protocol: (§1) The compounds were evaluated for their ability to anaesthetise rats when administered by continuous intravenous infusion, as reported previously. Compounds were administered to initially deliver 20 mg/kg/min (weight-adjusted flow) to achieve a pedal withdrawal reflex score (PWR = 1), then titrated to maintain loss of righting reflex (LORR) for 10 min. Three rats were used in each study, with each group of rats also acting as their own ketamine control. Data were collected on the total dose of drug (mg/kg), to achieve LORR and a PWR = 1, and on the time (in seconds, from cessation of the infusion) to recovery of righting reflex (RORR) (recovery from the hypnotic anaesthesia effect). Given the complexity of the experimental protocol, the total dose for LORR (Table 1) is very consistent, with ranges of only 1.5-fold within each group. The consistency of the post-sedation recovery times are expectedly lower, with ranges of about 2.5-fold. During recovery the rats were monitored for multiple signs of behavioural dysfunction (see biology section for details) and the sum of these scores (from 0 to 4, with 0 being no effect and 4 being severe dysfunction) is given in Table 2. IC50 values for inhibition of the NMDA receptor were conducted by Eurofins PanLabs, Taiwan.
(§2) All animal experiments were conducted at the Ruakura Research Centre, Hamilton, New Zealand, using experimental protocols reviewed and approved by the Ruakura Animal Ethics Committee (ethics ref 12604/13786). Adult female Sprague-Dawley rats of approximately 250–350 g were evaluated in both anaesthetic and analgaesic study protocols. All study agents were delivered by tail vein cannula connected via minibore extension tubing to mechanised infusion pump.
(§3) Following acquisition of baseline physiologic parameters (heart rate, respiratory rate, PWR, and righting reflex (RR)) ketamine or an experimental compound at 10mg/mL were commenced at a rate (weight-adjusted) to deliver 20 mg/kg/min. Dose to loss of righting reflex (LORR see below), and subsequent pedal withdrawal score of 1 (PWR see below) were recorded. Following attaining a PWR of 1, infusion rate was reduced to 6.7 mg/kg/min, then titrated in an up-and-down fashion as required to maintain both dorsal recumbency, and a PWR = 1, to 10 min before cessation. Each study used three rats, with each group of rats also acting as their own ketamine control. Prior odds/evens randomisation determined the order of study drug administration was determined by with a recovery interval of at least three hours afforded between experiments. Records of PWR and RR were made at one-minute intervals throughout, from cessation of infusion to return of righting reflex (RORR), and from cessation of infusion to the animals displaying independent locomotion (walk).
Loss of Righting Reflex (LORR): This is primarily used to assess anaesthetic hypnotic effect. Righting reflex is judged absent when the rat fails to right from a position of dorsal recumbency to a position of sternal recumbency on three attempts performed in rapid succession. Dose to LORR is termed effective potency.

rats [2] = assay: Pedal withdrawal reflex (PWR) scoring during intravenous infusion (analgaesic potency); type: in vivo; conditions: rat, i.v. infusion, dose to PWR = 1, mean (SEM), read-out: Analgaesia potency: minimal dose for loss of pedal withdrawal reflex (SEM)
Protocol: as §1, §2, §3
Pedal Withdrawal Reflex (PWR) scoring: Nociceptive testing in animals was conducted via 1 s application of constant pressure (firm digital pressure) over the forepaw of the animal. Pedal withdrawal reflex testing is primarily used to assess analgaesic effect, and responses are graded accordingly: 0, absent; 1, flicker; 2, moderate withdrawal; 3, fast withdrawal; 4, Fast withdrawal with cry/preceding apnoea (modified from).

rats [3] = assay: Tail flick analgaesic assessment (composite tail flick latency, cTFL); type: in vivo; conditions: rat, 20 mg/kg i.v. infused over 10 min; AUC of %MPE-time curve 0-60 min; measure of analgaesic magnitude/duration
Protocol: Analgaesic assessment protocol: Animal preparation was in accord with the anaesthetic assessment protocol above. Three rats were used in each study. Following venous cannulation, animals underwent infusion of ketamine or experimental compound at 20 mg/kg over a ten minute interval. A tail flick analgaesia meter (Colombus Instruments, Colombus, Ohio) was then used to determine thermal pain sensitivity. Radiant heat was applied using a shutter-controlled lamp as a heat source focused on a spot located 6–8 cm from the tip of the tail. The intensity of the beam was set at a level producing basal latency times between 2 and 4 s. To prevent thermal tissue injury the cut off time as set at 10 s. A digital response time indicator with a resolution of 0.1s measured the time from initiation of stimulus until tail withdrawal (the flick; TFL).
The TFL response following infusion of control and study drugs was calculated as a percentage of the maximum possible effect (MPE) such that:%MPE = [TFL (post-drug) – TFL (pre-drug)/10 s – TFL (pre-drug)] × 100%(1)
TFL latency was recorded at 5 min intervals from cessation of study drug infusion (time zero) to 60 min. Individual %MPE-time curves were constructed for each animal, and the area under the curve (AUC) adopted as a composite measure of induced analgaesia (cTFL).

[4] = molecular target: N-methyl-D-aspartate receptor; assay: Inhibition of the NMDA receptor (Eurofins Panlabs Taiwan); type: binding; conditions: conducted by Eurofins Panlabs Taiwan
Protocol: as §1

rats [5] = assay: Behavioural dysfunction scoring during recovery from infusion; type: in vivo; conditions: rat, during wake-up; sum score 0 (no effect) to 4 (severe dysfunction); mean (SEM)
Protocol: as §1
Behavioural dysfunction scoring: This was undertaken according to the following table. Observations were made over a one minute interval every five minutes from cessation of infusion until return of normal behaviours (total score = 0). A score of 1 was accorded for any positive behavioural aberration for each of four categories (maximal score 4) during wake-up.
Duration of any behavioural aberration was recorded from RORR as follows: score 0 = nil; score1 = 0–120 s; score 2 = 121–300 s; score 3 = 301–600 s; score 4 = 600+ s.

## COC(=O)CCCCNC1(c2cccc(OC(F)(F)F)c2)CCCCC1=O (stereo not drawn) [14b]
Rats [1]
  minimal effective dose: > 200 mg/kg
Rats [2]
  minimal effective dose: > 200 mg/kg
Rats [3]
  Analgaesia cTFL (composite tail flick latency): 444 s
[4]
  IC50: 57 µM
Rats [5]
  Behavioural dysfunction Score (SEM): severity on recovery: 0 (0)

## CC(C)OC(=O)CCNC1(c2cccc(Cl)c2)CCCCC1=O (stereo not drawn) [10a]
Rats [1]
  minimal effective dose: 67 mg/kg
Rats [2]
  minimal effective dose: 58 mg/kg
Rats [3]
  Analgaesia cTFL (composite tail flick latency): 332 s
[4]
  IC50: 164 µM
Rats [5]
  Behavioural dysfunction Score (SEM): severity on recovery: 1 (0)

## CC(C)OC(=O)CCNC1(c2cccc(OC(F)(F)F)c2)CCCCC1=O (stereo not drawn) [14a]
Rats [1]
  minimal effective dose: > 200 mg/kg
Rats [2]
  minimal effective dose: > 200 mg/kg
Rats [3]
  Analgaesia cTFL (composite tail flick latency): 274 s
[4]
  IC50: 211 µM
Rats [5]
  Behavioural dysfunction Score (SEM): severity on recovery: 0 (0)

## COc1ccccc1C1(NCCC(=O)OC(C)C)CCCCC1=O (stereo not drawn) [7a]
Rats [1]
  minimal effective dose: > 200 mg/kg
Rats [2]
  minimal effective dose: > 200 mg/kg
Rats [3]
  Analgaesia cTFL (composite tail flick latency): 313 s
[4]
  IC50: 172 µM
Rats [5]
  Behavioural dysfunction Score (SEM): severity on recovery: 0 (0)

## CC(C)OC(=O)CCNC1(c2cccs2)CCCCC1=O (stereo not drawn) [20a]
Rats [1]
  minimal effective dose: > 200 mg/kg
Rats [2]
  minimal effective dose: > 200 mg/kg
Rats [3]
  Analgaesia cTFL (composite tail flick latency): 362 s
[4]
  IC50: 157 µM
Rats [5]
  Behavioural dysfunction Score (SEM): severity on recovery: 1 (1)

## COC(=O)CCCCNC1(c2ccc(Cl)cc2)CCCCC1=O (stereo not drawn) [15b, Methyl 5-((1-(4-chlorophenyl)-2-oxocyclohexyl)amino)pentanoate]
Rats [1]
  minimal effective dose: 89 mg/kg
Rats [2]
  minimal effective dose: 100 mg/kg
Rats [3]
  Analgaesia cTFL (composite tail flick latency): 576 s
[4]
  IC50: 101 µM
Rats [5]
  Behavioural dysfunction Score (SEM): severity on recovery: 3 (1)

## COC(=O)CCCCNC1(c2ccccc2F)CCCCC1=O (stereo not drawn) [4b]
Rats [1]
  minimal effective dose: 35 mg/kg
Rats [2]
  minimal effective dose: 40 mg/kg
Rats [3]
  Analgaesia cTFL (composite tail flick latency): 11 s
[4]
  IC50: 3.1 µM
Rats [5]
  Behavioural dysfunction Score (SEM): severity on recovery: 3 (1.4)

## COC(=O)CCCCNC1(c2ccc(OC(F)(F)F)cc2)CCCCC1=O (stereo not drawn) [19b]
Rats [1]
  minimal effective dose: > 200 mg/kg
Rats [2]
  minimal effective dose: > 200 mg/kg
Rats [3]
  Analgaesia cTFL (composite tail flick latency): 194 s
[4]
  IC50: 597 µM
Rats [5]
  Behavioural dysfunction Score (SEM): severity on recovery: 0 (0)

## CC(C)OC(=O)CCNC1(c2cccc(C(F)(F)F)c2)CCCCC1=O (stereo not drawn) [13a]
Rats [1]
  minimal effective dose: > 200 mg/kg
Rats [2]
  minimal effective dose: > 200 mg/kg
Rats [3]
  Analgaesia cTFL (composite tail flick latency): 208 s
[4]
  IC50: 229 µM
Rats [5]
  Behavioural dysfunction Score (SEM): severity on recovery: 0 (0)

## Cc1cccc(C2(NCCC(=O)OC(C)C)CCCCC2=O)c1 (stereo not drawn) [11a]
Rats [1]
  minimal effective dose: 38 mg/kg
Rats [2]
  minimal effective dose: 50 mg/kg
Rats [3]
  Analgaesia cTFL (composite tail flick latency): 63 s
[4]
  IC50: 466 µM
Rats [5]
  Behavioural dysfunction Score (SEM): severity on recovery: 2 (1)

## COC(=O)CCCCNC1(c2ccccc2C)CCCCC1=O (stereo not drawn) [6b]
Rats [1]
  minimal effective dose: 37 mg/kg
Rats [2]
  minimal effective dose: 43 mg/kg
Rats [3]
  Analgaesia cTFL (composite tail flick latency): 91 s
[4]
  IC50: 3.4 µM
Rats [5]
  Behavioural dysfunction Score (SEM): severity on recovery: 1 (0)

## COC(=O)CCCCNC1(c2ccccc2OC)CCCCC1=O (stereo not drawn) [7b]
Rats [1]
  minimal effective dose: 34 mg/kg
Rats [2]
  minimal effective dose: 49 mg/kg
Rats [3]
  Analgaesia cTFL (composite tail flick latency): 2332 s
[4]
  IC50: > 1000 µM
Rats [5]
  Behavioural dysfunction Score (SEM): severity on recovery: 3 (1)

## COC(=O)CCCCNC1(c2ccc(C(F)(F)F)cc2)CCCCC1=O (stereo not drawn) [18b]
Rats [1]
  minimal effective dose: > 200 mg/kg
Rats [2]
  minimal effective dose: > 200 mg/kg
Rats [3]
  Analgaesia cTFL (composite tail flick latency): 37 s
[4]
  IC50: 470 µM
Rats [5]
  Behavioural dysfunction Score (SEM): severity on recovery: 0 (0)

## CC(C)OC(=O)CCNC1(c2ccc(OC(F)(F)F)cc2)CCCCC1=O (stereo not drawn) [19a]
Rats [1]
  minimal effective dose: > 200 mg/kg
Rats [2]
  minimal effective dose: > 200 mg/kg
Rats [3]
  Analgaesia cTFL (composite tail flick latency): 166 s
[4]
  IC50: 314 µM
Rats [5]
  Behavioural dysfunction Score (SEM): severity on recovery: 0 (0)

## CC(C)OC(=O)CCNC1(c2ccccc2F)CCCCC1=O (stereo not drawn) [4a]
Rats [1]
  minimal effective dose: 59 mg/kg
Rats [2]
  minimal effective dose: 62 mg/kg
Rats [3]
  Analgaesia cTFL (composite tail flick latency): 1297 s
[4]
  IC50: 249 µM
Rats [5]
  Behavioural dysfunction Score (SEM): severity on recovery: 1 (0)
